{"source": "patent US20190134000A1", "about": "“COMPOUNDS TO PROMOTE NORMAL PROCESSING OF APP” (Buck Institute for Research on Aging, priority 2016, published 2019)", "key": {"α7": {"molecular_target": "α7 (Homo sapiens, UniProt P36544)", "sequence (P36544 23-502)": "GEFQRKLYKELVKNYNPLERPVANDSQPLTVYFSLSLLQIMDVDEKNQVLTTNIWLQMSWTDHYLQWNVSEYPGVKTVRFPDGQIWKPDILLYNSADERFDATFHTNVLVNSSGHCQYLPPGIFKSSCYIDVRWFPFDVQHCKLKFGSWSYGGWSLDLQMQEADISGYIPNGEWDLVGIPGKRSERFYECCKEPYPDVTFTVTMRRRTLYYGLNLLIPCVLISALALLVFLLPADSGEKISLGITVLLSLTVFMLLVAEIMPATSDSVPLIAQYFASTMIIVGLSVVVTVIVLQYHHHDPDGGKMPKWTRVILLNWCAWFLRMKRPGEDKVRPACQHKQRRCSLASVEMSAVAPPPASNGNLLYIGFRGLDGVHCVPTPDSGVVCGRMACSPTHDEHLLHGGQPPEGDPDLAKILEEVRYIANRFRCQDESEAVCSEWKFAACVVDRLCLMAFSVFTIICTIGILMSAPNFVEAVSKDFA", "test": "Target binding α7"}, "5-HT3": {"molecular_target": "T1, 5-HT3 (Homo sapiens, UniProt P46098)", "T1 sequence (P46098 24-478)": "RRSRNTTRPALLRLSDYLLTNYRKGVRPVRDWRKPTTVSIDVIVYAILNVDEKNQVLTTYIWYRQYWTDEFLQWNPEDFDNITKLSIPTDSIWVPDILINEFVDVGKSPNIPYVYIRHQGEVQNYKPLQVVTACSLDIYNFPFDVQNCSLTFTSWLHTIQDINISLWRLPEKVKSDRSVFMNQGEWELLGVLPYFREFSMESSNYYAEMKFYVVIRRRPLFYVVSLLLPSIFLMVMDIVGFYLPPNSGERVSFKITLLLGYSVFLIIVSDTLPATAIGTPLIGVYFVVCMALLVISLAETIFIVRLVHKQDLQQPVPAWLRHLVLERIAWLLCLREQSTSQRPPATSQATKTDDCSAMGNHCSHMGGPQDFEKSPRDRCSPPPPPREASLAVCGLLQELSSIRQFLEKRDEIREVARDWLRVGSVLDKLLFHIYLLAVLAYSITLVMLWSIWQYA", "test": "Target binding 5-HT3"}, "[1]": {"test_system": "sAPPα, Aβ1-42 in CHO-7W cells", "test": "Secondary screen, sAPPα and Aβ in CHO-7W cells", "type": "cell-based", "text": "Compound C41 was initially identified by screening a library of compounds in a series of steps. First compounds were screened in a primary screen to determine the effect on sAPPα in SH-SYSY cells (see, e.g., FIG. 4). Compounds that elicited an increase in sAPPα of at least 10% were subjected to a secondary screen in CHO-7W cells for their effect on sAPPα and Aβ (see, e.g., FIG. 5)."}, "CYP2C19": {"molecular_target": "CYP2C19 (Homo sapiens, UniProt P33261)", "sequence (P33261 whole entry)": "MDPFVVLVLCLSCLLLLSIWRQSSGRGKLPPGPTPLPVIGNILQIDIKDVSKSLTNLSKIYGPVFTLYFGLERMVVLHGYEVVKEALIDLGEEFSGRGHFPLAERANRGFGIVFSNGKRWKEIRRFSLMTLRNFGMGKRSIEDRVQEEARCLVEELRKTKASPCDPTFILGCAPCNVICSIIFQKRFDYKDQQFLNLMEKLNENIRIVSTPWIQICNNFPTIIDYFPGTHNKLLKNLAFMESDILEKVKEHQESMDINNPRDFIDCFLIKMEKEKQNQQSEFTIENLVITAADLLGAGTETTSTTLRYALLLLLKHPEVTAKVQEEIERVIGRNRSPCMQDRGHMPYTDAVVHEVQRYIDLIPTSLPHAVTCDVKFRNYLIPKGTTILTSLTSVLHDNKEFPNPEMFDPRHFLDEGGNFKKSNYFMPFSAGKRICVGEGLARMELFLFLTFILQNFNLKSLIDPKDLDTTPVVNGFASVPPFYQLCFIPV", "test": "CYP inhibition screen CYP2C19", "type": "in vitro ADME"}, "CYP1A2": {"molecular_target": "T2, CYP1A2 (Homo sapiens, UniProt P05177)", "T2 sequence (P05177 1-516)": "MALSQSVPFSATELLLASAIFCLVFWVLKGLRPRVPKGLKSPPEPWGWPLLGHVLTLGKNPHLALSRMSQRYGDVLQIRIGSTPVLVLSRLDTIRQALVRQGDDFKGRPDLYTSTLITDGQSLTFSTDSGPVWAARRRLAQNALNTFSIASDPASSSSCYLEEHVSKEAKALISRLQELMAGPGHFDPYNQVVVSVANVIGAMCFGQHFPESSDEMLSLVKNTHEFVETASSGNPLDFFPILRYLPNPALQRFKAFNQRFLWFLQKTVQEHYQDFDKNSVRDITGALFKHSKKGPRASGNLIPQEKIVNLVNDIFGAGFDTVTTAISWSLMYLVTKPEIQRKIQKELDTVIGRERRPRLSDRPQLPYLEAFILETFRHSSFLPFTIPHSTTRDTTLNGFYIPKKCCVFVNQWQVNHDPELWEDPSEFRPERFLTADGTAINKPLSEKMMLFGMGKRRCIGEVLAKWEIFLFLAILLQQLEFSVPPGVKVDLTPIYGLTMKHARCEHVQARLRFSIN", "test": "CYP inhibition screen CYP1A2", "type": "in vitro ADME"}, "B254 mice": {"test_system": "B254 mice", "test": "C41 lead confirmation in B254 mice", "type": "in vivo", "settings": "4 weeks oral 4 mkd", "text": "FIG. 15 illustrates the result of C41 lead confirmation in B254 mice. Panel A: Novel Location Recognition; Panel B: Novel Object Recognition; Panel C: sAPPα; Panel D: Aβ40; Panel E: Aβ42; Panel F: p-tau/tau."}, "AD mouse model": {"test_system": "AD mouse model", "test": "Synaptic load, synaptophysin labeling of hippocampus", "type": "in vivo", "experimental": "FIG. 16 illustrates mechanistic confirmation studies for determination of synaptic load.\nMechanistic confirmation studies for determination of synaptic load were performed using antibody-labeling of synaptophysin with a green fluorescent tag. […] The improvements in NLR and NOR may be correlated to the restoration of synaptic load, increases in sAPPα or the sAPPα/sAPPβ ratio; increases in the sAPPα/Aβ1-42 ratio; decreases in the p-tau/tau ratio, and/or decreases in APPneo (c-terminal cleavage)."}, "S9 stability, mouse": {"test": "S9 stability, mouse", "type": "in vitro ADME"}}, "note": "Entries after “also recorded” stand apart in the source; their conditions may differ.", "data": [{"smiles": "CN1[C@@H]2CC[C@H]1C[C@@H](OC(=O)c1c[nH]c3cc(F)ccc13)C2", "note": "[Compound C41, (1R,3R,5S)-8-methyl-8-azabicyclo[3.2.1]octan-3-yl 6-fluoro-1H-indole-3-carboxylate]", "values": [{"measurement": "Target α7", "setting": "α7", "value": 1100, "unit": "nM"}, {"measurement": "Kd", "setting": "5-HT3", "value": "~0.003", "unit": "µM"}, {"measurement": "Target 5-HT3", "setting": "5-HT3; target binding", "value": 5, "unit": "nM"}, {"measurement": "Secondary Screen (CHO-7W) sAPPα", "setting": "[1]; ↑ increase", "value": "↑>20%"}, {"measurement": "Secondary Screen (CHO-7W) sAppα/Aβ", "setting": "[1]; ↑ increase of ratio", "value": "↑>50%"}, {"measurement": "Secondary Screen (CHO-7W) Aβ1-42", "setting": "[1]; ↓ decrease", "value": "↓>20%"}, {"measurement": "IC50", "setting": "CYP2C19", "value": "> 30", "unit": "µM"}, {"measurement": "inhibition at 10 µM", "setting": "CYP2C19; human", "value": 0, "unit": "%"}, {"measurement": "inhibition at 30 µM", "setting": "CYP2C19; human", "value": 0, "unit": "%"}, {"measurement": "IC50", "setting": "CYP1A2", "value": "> 30", "unit": "µM"}, {"measurement": "inhibition at 10 µM", "setting": "CYP1A2; human", "value": 0.35, "unit": "%"}, {"measurement": "inhibition at 30 µM", "setting": "CYP1A2; human", "value": 0.33, "unit": "%"}, {"measurement": "Aβ40", "setting": "B254 mice", "value": "trend for Aβ40 and 42 to decrease"}, {"measurement": "Aβ42", "setting": "B254 mice", "value": "trend for Aβ40 and 42 to decrease"}, {"measurement": "novel location recognition", "setting": "B254 mice", "value": "some improvement"}, {"measurement": "novel object recognition", "setting": "B254 mice", "value": "significant improvement"}, {"measurement": "p-Tau/Tau ratio", "setting": "B254 mice", "value": "significantly decreased"}, {"measurement": "synaptic load / synaptic density in hippocampus", "setting": "AD mouse model", "value": "restore synaptic density; also recorded: restored synaptic load"}, {"measurement": "Metabolic Half-Life Mouse S9", "setting": "S9 stability, mouse", "value": ">1", "unit": "h"}, {"measurement": "half-life", "setting": "S9 stability, mouse", "value": "> 1", "unit": "h"}]}]}
